Data set [1] addresses Nsp3b (SARS-CoV-2 macrodomain) (Severe acute respiratory syndrome coronavirus 2, UniProt P0DTD1). Nature of the data set: biochemical. In kind it is binding.
Data set [2] has as its system CHIKV (OPY1). The experiment in a line: microbe, parasite or virus in culture. Type of data set: cell-based. To be noted: Chikungunya virus, Vero C1008, 48 h.
For data set [3], the target named is T1, CHIKV macrodomain (Chikungunya virus, UniProt Q8JUX6). Conditions: cited from earlier work.
Data set [4] addresses T2, Nsp3b (Severe acute respiratory syndrome coronavirus 2, UniProt P0DTD1). In kind it is biochemical, SARS-CoV-2.
For data set [5], the target named is SARS-CoV macrodomain (Severe acute respiratory syndrome coronavirus, UniProt P0C6X7). The experiment in a line: biochemical. Type of data set: binding.
For data set [6], the target named is T2, Nsp3b. Type of data set: binding, SARS-CoV-2.
In data set [7] the target is T3, MERS-CoV macrodomain (Middle East respiratory syndrome-related coronavirus, UniProt K9N7C7). The experiment in a line: biochemical. Type of data set: binding.
The target of data set [8] is T3, MERS-CoV macrodomain. In kind it is biochemical.
Data set [9] deals with SARS-CoV-2 B.1. Nature of the data set: microbe, parasite or virus in culture. In kind it is cell-based. Conditions: for EC50: Severe acute respiratory syndrome coronavirus 2, VeroE6/TMPRSS2, 48 h.
Data set [10] can be described thus: physchem.
The nature of data set [11]: in vitro. Conditions: African green monkey.
In data set [12] the target is Rubella virus (RuV) macrodomain (Rubella virus, UniProt Q86500). In kind it is binding.
Data set [13] can be described thus: in vitro. Conditions: African green monkey. The source holds these as a separate data set.
Data set [14] addresses hMacroD2 (Homo sapiens, UniProt A1Z1Q3). In kind it is binding.
The target of data set [15] is T1, CHIKV macrodomain. In kind it is binding.
Data set [16] concerns Nsp3b. To be noted: cited from earlier work.

Where “and” joins values, the source holds several entries; their conditions need not be identical. Equal entries are not always repeated. Entries after “also recorded” stand apart in the source; their conditions may differ.

T3 sequence (K9N7C7 1110-1276 limits assumed): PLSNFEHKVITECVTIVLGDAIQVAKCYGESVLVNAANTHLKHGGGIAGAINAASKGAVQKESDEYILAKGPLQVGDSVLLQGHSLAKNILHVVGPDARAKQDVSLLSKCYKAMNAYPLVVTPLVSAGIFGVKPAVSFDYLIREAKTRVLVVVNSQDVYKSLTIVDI
T1 sequence (Q8JUX6 1334-1493 limits assumed): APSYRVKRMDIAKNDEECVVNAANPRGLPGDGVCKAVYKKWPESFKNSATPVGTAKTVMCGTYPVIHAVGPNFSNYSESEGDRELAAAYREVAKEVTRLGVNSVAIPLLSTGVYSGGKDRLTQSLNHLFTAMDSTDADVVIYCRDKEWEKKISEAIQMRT
Sequence of hMacroD2 (A1Z1Q3 7-243): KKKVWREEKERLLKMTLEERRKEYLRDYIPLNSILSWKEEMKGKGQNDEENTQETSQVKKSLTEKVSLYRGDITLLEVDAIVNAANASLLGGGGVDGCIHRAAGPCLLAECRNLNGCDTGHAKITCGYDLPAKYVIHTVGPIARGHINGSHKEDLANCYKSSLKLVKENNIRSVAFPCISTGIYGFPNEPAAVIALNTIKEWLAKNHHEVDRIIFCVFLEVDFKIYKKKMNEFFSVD
Sequence of Rubella virus (RuV) macrodomain (Q86500 806-985 limits assumed): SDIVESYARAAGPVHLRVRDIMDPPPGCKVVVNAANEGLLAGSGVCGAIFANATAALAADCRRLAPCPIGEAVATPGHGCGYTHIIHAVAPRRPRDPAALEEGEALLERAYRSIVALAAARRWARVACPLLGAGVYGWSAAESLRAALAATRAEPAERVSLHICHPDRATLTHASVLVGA

On to `Nc1ncnc2c1ncn2[C@@H]1O[C@H](COP(=O)(O)OP(=O)(O)O)[C@@H](O)[C@H]1O` [ADP], for which the Kd in [1] was above 10000 µM.
Molecule `Nc1ncnc2c1ncn2[C@@H]1O[C@H](COP(=O)(O)O)[C@@H](O)[C@H]1O` [AMP] showed a Kd in data set [1] of 1900 to 2500 µM.
For `Nc1ncnc2c1ncn2[C@@H]1O[C@H](COP(=O)(O)OP(=O)(O)NP(=O)(O)O)[C@@H](O)[C@H]1O` [APPNHP], the Kd in data set [1] lay within 1900 to 2500 µM.
On the same count and under the same terms, the same measure for `Nc1ncnc2c1ncn2[C@@H]1O[C@H](COP(=O)(O)OP(=O)(O)OP(=O)(O)O)[C@@H](O)[C@H]1O` [ATP]: 1900 to 2500 µM.
The molecule `NC(=O)c1nc(F)c[nH]c1=O` [Favipiravir, reference compound] gave an EC50 in [2] of 11.3 µM.
As for `N#C[C@@]1(c2ccc3c(N)ncnn23)O[C@H](CO)[C@@H](O)[C@H]1O` [GS‐441524], the “interaction with CHIKV macrodomain” value in data set [3] is on record as “no significant interaction; also recorded: does not bind detectably”. Besides, the “reduction of the k value versus free macrodomain” value in data set [4] was 33%.
Regarding `N#C[C@@]1(c2ccc3c(N)ncnn23)O[C@H](COP(=O)(O)O)[C@@H](O)[C@H]1O` [RMP], in data set [1], the Kd is around 10 µM.
In the case of `N#C[C@@]1(c2ccc3c(N)ncnn23)O[C@H](COS(N)(=O)=O)[C@@H](O)[C@H]1O` [compound 3], the ΔG in data set [5] is −7.52 kcal mol^–1; in data set [6], −8.28 kcal mol^–1; in [7], −5.43 kcal mol^–1. The ΔH was −12.5 ± 0.3 kcal mol^–1 in data set [5]; −12.00 ± 0.07 and −12.00 kcal mol^–1 and −12.00 and −12.0 ± 0.07 kcal mol^–1 in data set [6]. The results for the “−TΔS” value in data set [5] and in [6] were 4.96 kcal mol^–1 and 3.71 kcal mol^–1, respectively. In addition, the Kd in data set [5] (K D) was 3 µM and 3.08 µM; in data set [7], 104 ± 13 µM. For the same molecule, the “ΔH compared to GS-441524” value in [6] is “–6.75 kcal mol^−1”. The results for the EC50 in data set [2] and in data set [9] were 21.8 µM and above 40 µM, respectively. Besides, the “reduction of the k value versus free macrodomain” value in data set [4] is 47%; in data set [8], 16% and ≈ 16%. Moreover, the “inhibition of SARS-CoV-2” value in data set [9] is given as “no measurable inhibition”. For the same molecule, the pKa in data set [10] turned out to be 9.37 ± 0.02. Also, the CC50 in data set [11] and in data set [13] was above 40 µM in each case. For the same molecule, the “interaction by ITC” value in [12] was “no interaction was observed”; in [14] it was “no interaction was observed; also recorded: no binding was observed”; in data set [15] it was “no interaction was observed”.
For `CCC(CC)COC(=O)[C@H](C)N[P@](=O)(OC[C@H]1O[C@@](C#N)(c2ccc3c(N)ncnn23)[C@H](O)[C@@H]1O)Oc1ccccc1` [remdesivir, reference compound], it took 5.48 µM to reach a half-maximal effect in data set [9] (EC50).
On to ADP‐ribose [ADPr, reference compound], for which, in data set [8], the “reduction of the k value versus free macrodomain” value was 32% and ≈ 32%.
Consider α‐azido‐ADPr, for which, in data set [16], the IC50 was 0.49 µM.
Regarding β‐O‐methyl‐ADPr, the IC50 in [16] is 127 µM.

What is called Kd is the free concentration of one partner at which half of the binding sites on the other are occupied at equilibrium, for simple one-to-one binding. By EC50 is commonly meant the concentration that produces a half-maximal response. For orientation: pKa means the pH at which an ionisable group is half protonated. As a reminder, the IC50 is the concentration that inhibits the measured activity by half.

The values above are taken from publication PMC12666239 (Chembiochem, 2025).
